The values below come from patent publication US10301272B2, “Carboxamide or sulfonamide substituted thiazoles and related derivatives as modulators for the orphan nuclear receptor ROR[γ]” (Phenex Pharmaceuticals AG, priority 2012, dated 2019).

A value given as a limit tells only on which side of the number the result lay.

Test [1] deals with RORγ (Homo sapiens, UniProt P51449). The test can be described thus: RORγ Gal4 Reporter Gene Assay. Format: cell-based. Summed up: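 Cells at 5×10^5/well were transfected with RORγ fragments fused to the GAL4 DNA-binding domain (CMV promoter), a 5×GAL4-site firefly luciferase reporter and CMV-Renilla luciferase for normalization. About 4 h later serum-free MEM and compound were added (vehicle ≤0.1%). Cultures at 37 °C, 5% CO2; at least triplicates.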
Chain of RORγ (P51449 whole entry, looked up, the tested form may be a part): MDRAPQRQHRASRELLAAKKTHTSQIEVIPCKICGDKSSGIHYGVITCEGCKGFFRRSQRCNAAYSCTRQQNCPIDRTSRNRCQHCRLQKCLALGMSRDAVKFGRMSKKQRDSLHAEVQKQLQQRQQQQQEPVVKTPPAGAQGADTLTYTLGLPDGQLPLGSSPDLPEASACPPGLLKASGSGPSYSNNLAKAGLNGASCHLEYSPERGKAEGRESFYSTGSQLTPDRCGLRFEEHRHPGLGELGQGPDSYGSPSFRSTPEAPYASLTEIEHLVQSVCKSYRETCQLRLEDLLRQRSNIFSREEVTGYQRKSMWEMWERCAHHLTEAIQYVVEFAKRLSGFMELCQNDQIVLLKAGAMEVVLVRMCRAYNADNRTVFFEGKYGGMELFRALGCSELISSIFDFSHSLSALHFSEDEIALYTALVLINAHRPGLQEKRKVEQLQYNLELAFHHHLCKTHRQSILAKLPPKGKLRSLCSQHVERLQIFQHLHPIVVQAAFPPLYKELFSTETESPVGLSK
(In general: In a reporter assay the amount or activity of a reporter protein is the signal.)

The target in test [2] is RORγ ligand binding domain (LBD) (Homo sapiens (Human), UniProt P51449). The test can be described thus: TR-FRET Activity Assay (ligand sensing assay, LANCE). The following applies: for pIC50 (FRET): TR-FRET, interaction of RORγ-LBD with coactivator peptide. (In general: Time-resolved FRET reads energy transfer from a long-lived donor to a nearby acceptor.)
Chain of RORγ ligand binding domain (LBD) (P51449 269-508): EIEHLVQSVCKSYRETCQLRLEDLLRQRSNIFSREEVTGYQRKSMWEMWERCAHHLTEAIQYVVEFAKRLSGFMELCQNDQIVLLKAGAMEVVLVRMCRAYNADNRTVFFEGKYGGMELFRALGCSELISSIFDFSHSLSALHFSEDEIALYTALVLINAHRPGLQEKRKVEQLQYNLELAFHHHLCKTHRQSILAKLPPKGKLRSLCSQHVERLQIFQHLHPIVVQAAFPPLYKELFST

Regarding `CC1CC(C)CN(C(=O)c2nc(C(=O)NCC(C)(C)O)sc2-c2ccc(S(=O)(=O)NC(C)(C)C)c3ccccc23)C1` (stereo not drawn) [304/8], in test [1], the “pIC50 (FF)” value is 6.0/6.9/6.9 and the “pIC50 (REN)” value is reported as 6.0/6.9/6.9. Further, the “pIC50 (FRET)” value in test [2] is listed as 6.0/6.9/6.9.

Turning to `CC(C)(C)NS(=O)(=O)c1ccc(-c2sc(C(=O)NN3CCOCC3)nc2CC2CCCCC2)c(Cl)c1Cl` [6/20], in test [1], the “pIC50 (FF)” value was 6.9/8.7/8.7 and the “pIC50 (REN)” value is on record as 6.9/8.7/8.7. Further, the “pIC50 (FRET)” value in test [2] is on record as 6.9.

For the compound `CC(C)(C)NS(=O)(=O)c1ccc(-c2oc(C(=O)N[C@H]3C[C@H](C(=O)O)C3)nc2CC2CCCCC2)cc1C(C)(C)C` [100/2], in test [1], the “pIC50 (FF)” value is on record as 5.5/6.4/6.3 and the “pIC50 (REN)” value was 5.5/6.4/6.3. Besides, the “pIC50 (FRET)” value in test [2] is 5.5/6.4/6.3.

Take `CC(C)(O)c1ccc(-c2sc(C(=O)NC3CCS(=O)(=O)CC3)nc2CC2CCCCC2)c2ccccc12` [7/23]: in test [1], the “pIC50 (FF)” value is listed as <4.7/6.8/6.7 and the “pIC50 (REN)” value is given as <4.7/6.8/6.7. In test [2], the IC50 is over 20 µM.

As for `CC(C)(C)NS(=O)(=O)c1ccc(-c2oc(C(=O)NC3CCS(=O)(=O)CC3)nc2CC2CCCCC2)c(Cl)c1Cl` [100/16], in test [1], the “pIC50 (FF)” value is recorded as 6.6/8.4/8.2 and the “pIC50 (REN)” value is 6.6/8.4/8.2. Also, the “pIC50 (FRET)” value in test [2] was 6.6/8.4/8.2.

For the compound `CC(C)(C)NS(=O)(=O)c1ccc(-c2sc(C(=O)NCC3(C(N)=O)CCOCC3)nc2CC2CCCCC2)c2ccccc12` [6/3], in test [1], the “pIC50 (FF)” value is on record as 6.5/8.5/8.7 and the “pIC50 (REN)” value is given as 6.5/8.5/8.7. Moreover, the “pIC50 (FRET)” value in test [2] was 6.5/8.5/8.7.

Turning to `CC(C)(C)c1cc(-c2cc(C(N)=O)ccc2CC2CCCCC2)cc(C(C)(C)C)c1` [Example 208, 3′,5′-Di-tert-butyl-6-(cyclohexylmethyl)-[1,1′-biphenyl]-3-carboxamide], in test [1], the “pIC50 (FF)” value is recorded as 6.5/6.3/6.3 and the “pIC50 (REN)” value is 6.5/6.3/6.3. Besides, the “pIC50 (FRET)” value in test [2] is 6.5/6.3/6.3.

Turning to `CC(C)(C)NS(=O)(=O)c1ccc(-c2oc(C(=O)NC3CCOCC3)nc2CC2CCCCC2)cc1C(C)(C)C` [Example 100/1], in test [1], the “pIC50 (FF)” value was 5.9/6.3/6.3 and the “pIC50 (REN)” value was 5.9/6.3/6.3. In test [2], the “pIC50 (FRET)” value is 5.9/6.3/6.3.

On to `COC(c1nc(C(=O)NC2CCOCC2)sc1-c1ccc(S(=O)(=O)NC(C)(C)C)c(C(C)(C)C)c1)C1CCCCC1` (stereo not drawn) [Example 19/1], for which, in test [1], the “pIC50 (FF)” value is 6.1/6.7/6.7 and the “pIC50 (REN)” value is reported as 6.1/6.7/6.7. In addition, the “pIC50 (FRET)” value in test [2] is 6.1/6.7/6.7.

As for `CNS(=O)(=O)c1ccc(-c2sc(C(=O)N3CC4(CCS(=O)(=O)CC4)C3)nc2CC2CCCCC2)c2ccccc12` [14/5], in test [1], the “pIC50 (FF)” value is 6.3/6.6/6.6 and the “pIC50 (REN)” value is given as 6.3/6.6/6.6. Further, in test [2], the “pIC50 (FRET)” value is reported as 6.3/6.6/6.6.

On to `CC(C)(C)NS(=O)(=O)c1ccc(-c2sc(C(=O)NCC(C)(C)C(=O)O)nc2CC2CCCCC2)cc1C(F)(F)F` [9/3], for which, in test [1], the “pIC50 (FF)” value was 6.4/7.2/7.4 and the “pIC50 (REN)” value was 6.4/7.2/7.4. Also, the “pIC50 (FRET)” value in test [2] is recorded as 6.4/7.2/7.4.

Turning to `COC(=O)C(C)(C)CCNC(=O)c1nc(CC2CCCCC2)c(-c2cc(C(C)(C)C)cc(C3(C)CC3)c2)s1` [Example 6, Methyl 4-(5-(3-(tert-butyl)-5-(1-methylcyclopropyl)phenyl)-4-(cyclohexylmethyl)thiazole-2-carboxamido)-2,2-dimethylbutanoate], in test [1], the “pIC50 (FF)” value was 6.7/6.2/6.3 and the “pIC50 (REN)” value is recorded as 6.7/6.2/6.3. For the same compound, the “pIC50 (FRET)” value in test [2] is 6.7/6.2/6.3.

In the case of `CC(C)(C)NS(=O)(=O)c1ccc(-c2sc(C(=O)N[C@H]3C[C@H](C(=O)O)C3)nc2CC2CCCCC2)cc1C(C)(C)C` [7/2], in test [1], the “pIC50 (FF)” value is 6.2/7.5/7.6 and the “pIC50 (REN)” value is listed as 6.2/7.5/7.6. The “pIC50 (FRET)” value in test [2] was 6.2/7.5/7.6.

As for `CC(C)(O)c1cc(-c2sc(C(=O)N[C@H]3C[C@H](C(=O)O)C3)nc2CC2CCCCC2)cc(C2(C)CC2)c1` [9/4], in test [1], the “pIC50 (FF)” value is 6.5/7.1/7.1 and the “pIC50 (REN)” value is recorded as 6.5/7.1/7.1. In addition, the “pIC50 (FRET)” value in test [2] is 6.5/7.1/7.1.

The IC50 is the concentration needed to halve the response being measured. Read a high IC50 as weaker potency in that assay.
